The results in this text go back to patent US5281585A, “Fibrinogen receptor antagonists for inhibiting aggregation of blood platelets” (Merck & Co., Inc., priority 1992, dated 1994).

The structures appear in SMILES notation.

In assay [1] the test system is platelet aggregation. Kind of assay: In vivo activity in dogs: ex vivo platelet aggregation, intravenous infusion. Details: species or system dog. To be noted: 10 μg/kg/min and 25 μg/kg/min. As for the experimental part: (§1) The following protocols were used to determine in vivo activity in dogs of fibrinogen receptor antagonists of the present invention.
(§2) A mongrel dog of either sex (weighing 7.5 to 11.5 kg) is comfortably positioned in a nylon sling which exposes the legs and keeps the dog stationary. Five ml of blood is withdrawn from either saphenous or cephalic veins with a plastic syringe containing 0.5 ml of 3.8% citrate via a 19-gauge butterfly. An additional I ml of citrated blood is taken to measure whole blood platelet counts. Ex vivo platelet aggregations are done with the agonists ADP (10 μM) and collagen (10 μg/ml) both primed with 1μM epinephrine. Platelet-rich plasma (PRP) is obtained by centrifuging the blood at 150 x g for 5 minutes. Platelet counts are adjusted to 200,000/mm^3 with platelet-poor plasma.
For the intravenous infusion, blood samples for ex vivo platelet aggregation are taken at the following time points: 0,30, 45, 60, 90 and 120 min into the infusion and 2,5, 15, 30, 60, 90, 120, 180, 240, 300, 360, and 420 minutes after the infusion stops. At each time point, the remaining platelet-poor plasma is saved and frozen for drug levels. The drug is infused for 120 minutes at a constant rate of 0.1 ml/min.
(§3) In the oral and intravenous groups, blood collection times are recorded at each time point in order to determine drug plasma levels.

Assay [2] relates to platelet aggregation. Put plainly: In vivo activity in dogs: ex vivo platelet aggregation, oral administration. As to conditions: single oral administration of 2 mg/kg, for a period of eight hours. Details: species or system dog. As for the experimental part: as §1, §2
Oral administration of a drug is done either as a gelatin capsule or a gastric lavage. For the gastric lavage method, 5 ml of the drug solution is administered to the dog through a feeding tube. Blood samples for ex vivo platelet aggregation are taken at the following time points: 0,20, 40, 70, 90, 150, 200, 250, 300, 350, 480 min. 24 hr. 30 hr, and 48 hr. At each time point, the remaining platelet-poor plasma is saved and frozen for drug levels. […]
as §3

On to `O=C(O)CCNC(=O)CN1CCCC(CCC2CCNCC2)C1=O` (stereo not drawn), for which the “Inhibition of platelet aggregation (% of control) during infusion” value in the assay on platelet aggregation [1] (during infusion) is given as “nearly complete”. Also, the “Inhibition of platelet aggregation (% of control) after infusion cessation” value with platelet aggregation [1] (for several hours after infusion cessation) is “partial inhibition”. Moreover, the “% Inhibition of platelet aggregation” value in the assay with platelet aggregation [2] is listed as “greater than 50%”.
